Structures can show the parent of a compound that is named as a salt. Where two headings read alike, the source gives them in different places.
How the values were obtained:
butyrylcholinesterase = butyrylcholinesterase (Homo sapiens, UniProt P06276); test: biochemical
acetylcholinesterase = acetylcholinesterase (Homo sapiens, UniProt P22303); test: biochemical
[1] = read-out: Butyrylcholinesterase IC-50
[2] = read-out: Acetylcholinesterase IC-50

butyrylcholinesterase, sequence (P06276 29-602): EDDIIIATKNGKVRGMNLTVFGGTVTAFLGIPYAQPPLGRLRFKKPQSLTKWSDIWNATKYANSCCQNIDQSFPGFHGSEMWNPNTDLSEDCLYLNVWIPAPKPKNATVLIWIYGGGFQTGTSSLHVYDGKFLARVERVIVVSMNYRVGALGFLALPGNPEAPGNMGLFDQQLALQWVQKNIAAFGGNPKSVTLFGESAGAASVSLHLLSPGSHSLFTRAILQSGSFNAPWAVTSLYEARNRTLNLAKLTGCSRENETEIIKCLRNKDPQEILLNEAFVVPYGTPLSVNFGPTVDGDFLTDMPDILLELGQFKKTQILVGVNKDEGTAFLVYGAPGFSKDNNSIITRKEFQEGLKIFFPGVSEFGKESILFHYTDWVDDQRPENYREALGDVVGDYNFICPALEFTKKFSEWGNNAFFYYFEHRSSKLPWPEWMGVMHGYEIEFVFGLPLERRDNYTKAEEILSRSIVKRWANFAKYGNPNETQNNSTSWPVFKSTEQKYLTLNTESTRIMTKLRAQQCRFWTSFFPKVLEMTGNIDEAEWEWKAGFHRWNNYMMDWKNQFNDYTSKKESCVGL
acetylcholinesterase, sequence (P22303 32-614, species assumed): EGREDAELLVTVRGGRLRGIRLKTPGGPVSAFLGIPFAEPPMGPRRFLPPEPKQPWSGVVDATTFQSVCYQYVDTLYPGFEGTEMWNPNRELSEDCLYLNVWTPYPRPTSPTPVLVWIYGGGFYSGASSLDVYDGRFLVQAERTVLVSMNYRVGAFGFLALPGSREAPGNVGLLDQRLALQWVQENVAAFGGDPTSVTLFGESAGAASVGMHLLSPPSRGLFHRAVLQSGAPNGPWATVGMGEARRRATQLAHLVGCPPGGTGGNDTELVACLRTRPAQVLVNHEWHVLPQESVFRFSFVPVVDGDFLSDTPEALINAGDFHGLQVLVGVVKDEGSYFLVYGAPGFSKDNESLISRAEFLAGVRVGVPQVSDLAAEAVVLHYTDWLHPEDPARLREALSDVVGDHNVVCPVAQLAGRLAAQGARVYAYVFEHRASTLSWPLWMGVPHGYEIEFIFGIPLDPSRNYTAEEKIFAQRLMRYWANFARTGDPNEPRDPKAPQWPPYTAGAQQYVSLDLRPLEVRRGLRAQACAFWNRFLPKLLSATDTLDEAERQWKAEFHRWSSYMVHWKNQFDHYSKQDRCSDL

SMILES: CNC(=S)N1CC[C@]23C=C[C@H](O)C[C@H]2Oc2c(OC)cc(Br)c(c23)C1 [Example 4, (4aR,6R,8aR)-1-brorno-4a,5,9,10-tetrahydro-6-hydroxy-3-methoxy-6H-[1]benzofuro-[3a,3,2-ef][2]benzazepine-11(12H)-thiocarbonic acid methylamide]
- IC50 (butyrylcholinesterase; [1]): > 100 µM
- IC50 (acetylcholinesterase; [2]): > 100 µM

SMILES: COc1cc(Br)c2c3c1O[C@@H]1C[C@H](O)C=C[C@]31CCN(Cc1ccccc1)C2 [Example 6, (4aR,6S,8aR)-11-benzyl-1-bromo-4a,5,9,10,11,12-hexahydro-3-methoxy-6H-[1]benzofuro[3a,3,2-ef][2]benzazepin-6-ol]
- IC50 (butyrylcholinesterase; [1]): 19 µM
- IC50 (acetylcholinesterase; [2]): > 100 µM

SMILES: COC(=O)CCC(=O)N1CC[C@]23C=C[C@@H](O)C[C@H]2Oc2c(OC)cc(Br)c(c23)C1 [Example 9, Methyl-4-((4aR,6S,8aR)-1-bromo-4a,5,9,10,11,12-hexahydro-6-hydroxy-3-methoxy-6H-benzofuro[3a,3,2-ef][2]benzazepine-11-yl)gamma-oxobutyrate]
- IC50 (butyrylcholinesterase; [1]): > 100 µM
- IC50 (acetylcholinesterase; [2]): > 100 µM

SMILES: COc1cc(Br)c2c3c1O[C@@H]1C[C@H](O)C=C[C@]31CCN(CCCN)C2 [Example 10, (4aR,6S,8aR)-11-(4-aminopropyl)-3-methoxy-5,6,9,10,11,12-hexahydro-4aH-[1]benzofuro[3a,3,2-et][2]benzazepin-6-ol, methane sulfonate]
- IC50 (butyrylcholinesterase; [1]): > 100 µM
- IC50 (acetylcholinesterase; [2]): > 100 µM

SMILES: CNC(=S)N1CC[C@]23C=C[C@@H](O)C[C@H]2Oc2c(OC)cc(Br)c(c23)C1 [Example 11, (4aR,6S,8aR)-1-bromo-4a,5,9,10-tetrahydro-6-hydroxy-3-methoxy-6H-[1]benzofuro-[3a,3,2-et][2]benzazepine-11(12H)-thiocarbonic acid methylamide]
- IC50 (butyrylcholinesterase; [1]): > 100 µM
- IC50 (acetylcholinesterase; [2]): > 100 µM

SMILES: COc1ccc2c3c1O[C@H]1C[C@H](O)C=C[C@@]31CCN(C(=O)NC(C)C)C2 [Example 14]
- IC50 (butyrylcholinesterase; [1]): > 100 µM
- IC50 (acetylcholinesterase; [2]): > 100 µM

SMILES: COc1ccc2c3c1O[C@H]1C[C@H](O)C=C[C@@]31CCN(c1ncccn1)C2 [Example 16, (4aS,6S,8aS)-4a,5,9,10,11,12-hexahydro-3-methoxy-11-(2-pyrimidinyl)-6H-[1]benzofuro[3a,3,2-ef][2]benzazepin-6-ol]
- IC50 (butyrylcholinesterase; [1]): > 100 µM
- IC50 (acetylcholinesterase; [2]): > 100 µM

SMILES: C#CCN1CC[C@@]23C=C[C@@H](O)C[C@@H]2Oc2c(OC)ccc(c23)C1 [Example 18, (4aS,6S,8aS)-4a,5,9,10,11,12-hexahydro-3-methoxy-11-propargyl-6H-[1]benzofuro[3a,3,2-ef][2]benzazepin-6-ol]
- IC50 (butyrylcholinesterase; [1]): > 100 µM
- IC50 (acetylcholinesterase; [2]): > 100 µM

SMILES: C=CCNC(=S)N1CC[C@@]23C=C[C@@H](O)C[C@@H]2Oc2c(OC)ccc(c23)C1 [Example 20, (4aS,6S,8aS)-6-hydroxy-3-methoxy-4a,5,9,10-tetrahydro-6H-[1]benzofuro[3a,3,2-ef][2]benzazepine-11(12H)-thiocarbonic acid allylamide]
- IC50 (butyrylcholinesterase; [1]): > 100 µM
- IC50 (acetylcholinesterase; [2]): > 100 µM

SMILES: COc1ccc2c3c1O[C@H]1C[C@H](O)C=C[C@@]31CCN(C(N)=O)C2 [Example 21, (4aS,6S,8aS)-4a,5,9,10-tetrahydro-6-hydroxy-3-methoxy-6H-[1]benzofuro[3a,3,2-ef][2]benzazepine-11(12H)-carboxamide]
- IC50 (butyrylcholinesterase; [1]): > 100 µM
- IC50 (acetylcholinesterase; [2]): > 100 µM

SMILES: COc1ccc2c3c1O[C@@H]1C[C@@H](O)C=C[C@]31CCN(C(N)=O)C2 [Example 25, (4aR,6R,8aR)-4a,5,9,10-tetrahydro-6-hydroxy-3-methoxy-6H-[1]benzofuro[3a,3,2-ef][2]benzazepine-11(12H)-carboxamide]
- IC50 (butyrylcholinesterase; [1]): > 100 µM
- IC50 (acetylcholinesterase; [2]): > 100 µM

SMILES: CCN1CC[C@]23C=C[C@H](O)C[C@H]2Oc2c(OC)ccc(c23)C1 [Example 26, (4aR,6R,8aR)-4a,5,9,10,11,12-hexahydro-3-methoxy-11-ethyl-6H-[1]benzofuro[3a,3,2,ef][2]benzazepin-6-ol]
- IC50 (butyrylcholinesterase): > 100 µM
- IC50 (acetylcholinesterase): > 100 µM

SMILES: COc1ccc2c3c1O[C@@H]1C[C@@H](O)C=C[C@]31CCN(/C(=N/C#N)SC)C2 [Example 27, Methyl (4aR,6R,8aR)-N11-cyano-6-hydroxy-3-methoxy-4a,5,9,10-tetrahydro-6H-[1]benzofuro [3a,3,2-ef][2]benzazepine-11(12H)-carboximidothioate]
- IC50 (butyrylcholinesterase; [1]): > 100 µM
- IC50 (acetylcholinesterase; [2]): > 100 µM

SMILES: COc1ccc2c3c1O[C@@H]1C[C@@H](N)C=C[C@]31CCN(C)C2 [Example 28, (4aR,6R,8aR)-4a,5,9,10,11,12-hexahydro-3-methoxy-11-methyl-6H-benzofuro[3a,3,2-ef][2]benzazepin-6-amine, dihydrochloride]
- IC50 (butyrylcholinesterase; [1]): > 100 µM
- IC50 (acetylcholinesterase; [2]): > 100 µM

SMILES: COc1ccc2c3c1O[C@@H]1C[C@H](O)C=C[C@]31CCN(CCCO)C2 [Example 29, (4aR,6S,8aR)-11-(3-hydroxypropyl)-3-methoxy-5,6,9,10,11,12-hexahydro-4aH-[1]benzofuro[3a,3,2-ef][2]benzazepin-6-ol]
- IC50 (butyrylcholinesterase; [1]): > 100 µM
- IC50 (acetylcholinesterase; [2]): > 100 µM

SMILES: COc1ccc2c3c1O[C@H]1C[C@@H](O)C=C[C@@]31CCN(CC(N)=O)C2 [Example 34, 2-((4aS,6R,8aS)-6-hydroxy-3-methoxy-5,6,9,10-tetrahydro-4aH-[1]benzofuro[3a,3,2-ef][2]benzazepine-11(12H)-yl)acetamide]
- IC50 (butyrylcholinesterase; [1]): 78 µM
- IC50 (acetylcholinesterase; [2]): > 100 µM

SMILES: COc1ccc2c3c1O[C@H]1C[C@@H](O)C=C[C@@]31CCN(c1ncccn1)C2 [Example 37, (4aS,6R,8aS)-3-methoxy-11-(2-pyrimidinyl)-5,6,9,10,11,12-hexahydro-4aH-[1]benzofuro [3a,3,2-ef][2]benzazepin-6-ol]
- IC50 (butyrylcholinesterase; [1]): > 100 µM
- IC50 (acetylcholinesterase; [2]): > 100 µM

SMILES: COc1ccc2c3c1O[C@H]1C[C@@H](O)C=C[C@@]31CCN(C(=O)CCC(=O)O)C2 [Example 39, ((4aS,6R,8aS)-4a,5,9,10,11,12-hexahydro-6-hydroxy-3-methoxy-6H-benzofuro[3a,3,2-ef][2]benzazepine-11--yl)gamma-oxobutyric acid]
- IC50 (butyrylcholinesterase; [1]): > 100 µM
- IC50 (acetylcholinesterase; [2]): > 100 µM

SMILES: COc1ccc2c3c1O[C@H]1C[C@@H](O)C=C[C@@]31CCN(c1nc(Cl)nc(Cl)n1)C2 [Example 42, (4aS,6R,8aS)-11-(4,6-dichloro-1,3,5,-triazin-2-yl)-3-methoxy-5,6,9,10,11,12-hexahydro-4aH-[1]benzofuro[3a,3,2-ef][2]benzazepin-6-ol]
- IC50 (butyrylcholinesterase; [1]): > 100 µM
- IC50 (acetylcholinesterase; [2]): > 100 µM

SMILES: COc1ccc2c3c1O[C@H]1C[C@@H](O)C=C[C@@]31CCN(CCCCN1CCCCC1)C2 [Example 50]
- IC50 (butyrylcholinesterase): 0.61 µM
- IC50 (acetylcholinesterase): 0.036 µM

SMILES: COc1cc(Br)c2c3c1O[C@H]1C[C@@H](O)C=C[C@@]31CCN(CCN1CCOCC1)C2 [Example 57, (4aS,6R,8aS)-1-bromo-4a,5,9,10,11,12-hexahydro-11-(2-(mopholin-4-yl)-ethyl)-3-methoxy-6H-[1]benzafuro[3a,3,2-ef][2]benzazepin-6-ol]
- IC50 (butyrylcholinesterase): 2.7 µM
- IC50 (acetylcholinesterase): > 100 µM

SMILES: COc1ccc2c3c1O[C@@H]1C=C(c4ccccc4)C=C[C@@]31CCN(C)C2 [Example 59, (4aS,8aS)-D5,6-4a,5,9,10,11,12-hexahydro-11-methyl-3-methoxy-6-phenyl-6H-[1]benzofuro[3a,3,2-ef][2]benzazepine]
- IC50 (butyrylcholinesterase; [1]): 25 µM
- IC50 (acetylcholinesterase; [2]): 52 µM

SMILES: COc1ccc2c3c1O[C@H]1C=C(C)C=C[C@@]31CCN(C)C2 [Example 60, (4aS,8aS)-D5,6--4a,5,9,10,11,12-hexahydro-6,11-dimethyl-3-methoxy-6H-[1]benzofuro[3a,3,2-ef][2]benzazepine]
- IC50 (butyrylcholinesterase; [1]): 200 µM
- IC50 (acetylcholinesterase; [2]): 80 µM

SMILES: COc1ccc2c3c1O[C@H]1C=C(C(C)C)C=C[C@@]31CCN(C)C2 [Example 61, (4aS,8aS)-D5,6-4a,5,9,10,11,12-hexahydro-6-(isopropyl)-11-methyl-3-methoxy-6H-[1]benzofuro [3a,3,2-ef][2]benzazepine]
- IC50 (butyrylcholinesterase; [1]): 9 µM
- IC50 (acetylcholinesterase; [2]): > 100 µM

— patent publication US20070105837A1, “Novel derivatives of 4a,5,9,10,11,12-hexahydrobenzofuro[3a,3,2][2]-benzazepine, method for the production thereof and use thereof in the production of medicaments” (priority 2003, published 2007)
